Columns and labels:
[1] = DRUGMATRIX: Glutamate, NMDA, Phencyclidine radioligand binding (ligand: [3H] TCP); format: cell membranes, Rattus norvegicus, Wistar, Cerebral cortex, Membrane; conditions: Not Active = under 50% inhibition at 10 µM
Calcitonin receptor = biological target: T1, Calcitonin receptor (Homo sapiens, UniProt P30988); format: cell membranes, Membrane; conditions: t47d; also: in other assays of this panel Not Active means under 50% inhibition at 10 µM
T1 sequence (P30988 whole entry): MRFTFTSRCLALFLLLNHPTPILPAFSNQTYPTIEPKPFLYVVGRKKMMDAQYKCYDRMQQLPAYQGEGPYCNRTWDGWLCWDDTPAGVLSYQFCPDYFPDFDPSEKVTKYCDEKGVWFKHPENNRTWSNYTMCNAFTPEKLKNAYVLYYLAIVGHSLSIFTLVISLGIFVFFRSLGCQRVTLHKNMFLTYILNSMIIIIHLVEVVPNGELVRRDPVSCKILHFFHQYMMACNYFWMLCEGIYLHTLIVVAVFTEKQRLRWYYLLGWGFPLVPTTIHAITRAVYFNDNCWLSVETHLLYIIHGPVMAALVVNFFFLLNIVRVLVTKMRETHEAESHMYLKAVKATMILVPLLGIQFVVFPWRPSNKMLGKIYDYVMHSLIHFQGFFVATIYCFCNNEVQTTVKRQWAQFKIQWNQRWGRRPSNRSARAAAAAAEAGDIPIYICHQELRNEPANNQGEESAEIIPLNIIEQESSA

[2] = biological target: Tyrosine-protein kinase Lck (Homo sapiens, UniProt P06239); test: DRUGMATRIX: Protein Tyrosine Kinase, LCK enzyme inhibition (substrate: Poly(Glu:Tyr)); format: cell-based, Insect cells; conditions: insect cells; Not Active = under 50% inhibition at 10 µM
Tyrosine-protein kinase Lck, sequence (P06239 whole entry): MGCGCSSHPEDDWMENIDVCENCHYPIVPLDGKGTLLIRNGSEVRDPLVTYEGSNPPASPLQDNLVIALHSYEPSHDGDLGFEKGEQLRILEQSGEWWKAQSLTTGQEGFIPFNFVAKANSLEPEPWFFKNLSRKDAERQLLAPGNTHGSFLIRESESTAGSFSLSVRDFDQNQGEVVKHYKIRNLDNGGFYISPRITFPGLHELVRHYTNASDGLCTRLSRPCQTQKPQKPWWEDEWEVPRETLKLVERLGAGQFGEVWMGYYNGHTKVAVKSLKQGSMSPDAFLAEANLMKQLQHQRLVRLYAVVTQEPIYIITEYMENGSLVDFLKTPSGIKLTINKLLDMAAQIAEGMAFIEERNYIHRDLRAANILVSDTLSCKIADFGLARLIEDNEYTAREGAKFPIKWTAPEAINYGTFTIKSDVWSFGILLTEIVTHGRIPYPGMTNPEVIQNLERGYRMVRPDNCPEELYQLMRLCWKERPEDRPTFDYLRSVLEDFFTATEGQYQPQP

[3] = DRUGMATRIX: GABAA, Flunitrazepam, Central radioligand binding (ligand: [3H] Flunitrazepam); format: cell membranes, Rattus norvegicus, Wistar, Brain, Membrane; conditions: Not Active = under 50% inhibition at 10 µM
[4] = biological target: T2, Cholecystokinin receptor type A (Homo sapiens, UniProt P32238); format: cell membranes, Membrane; conditions: 1321-n1; also: in other assays of this panel Not Active means under 50% inhibition at 10 µM
T2 sequence (P32238 whole entry): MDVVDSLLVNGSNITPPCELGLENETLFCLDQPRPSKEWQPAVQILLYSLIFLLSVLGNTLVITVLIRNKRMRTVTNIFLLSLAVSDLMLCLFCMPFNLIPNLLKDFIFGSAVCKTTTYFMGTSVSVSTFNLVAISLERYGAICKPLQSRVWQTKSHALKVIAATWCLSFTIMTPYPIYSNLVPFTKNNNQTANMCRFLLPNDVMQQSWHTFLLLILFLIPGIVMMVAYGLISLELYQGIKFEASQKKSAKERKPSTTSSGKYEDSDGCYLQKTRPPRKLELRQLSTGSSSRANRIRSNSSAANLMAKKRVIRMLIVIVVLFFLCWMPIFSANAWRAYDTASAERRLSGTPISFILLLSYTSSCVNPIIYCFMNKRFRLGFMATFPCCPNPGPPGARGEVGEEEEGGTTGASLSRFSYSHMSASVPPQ

[5] = DRUGMATRIX: Sigma2 radioligand binding (ligand: [3H] Ifenprodil); format: cell membranes, Rattus norvegicus, Wistar, Brain, Membrane; conditions: Not Active = under 50% inhibition at 10 µM
[6] = DRUGMATRIX: Calcium Channel Type L, Dihydropyridine radioligand binding (ligand: [3H] Nitrendipine); format: cell membranes, Rattus norvegicus, Wistar, Cerebral cortex, Membrane; conditions: Not Active = under 50% inhibition at 10 µM
[7] = biological target: T3, Muscarinic acetylcholine receptor M2 (Homo sapiens, UniProt P08172); format: cell membranes, CHO-K1, Membrane; conditions: cho-k1; also: in other assays of this panel Not Active means under 50% inhibition at 10 µM
T3 sequence (P08172 whole entry): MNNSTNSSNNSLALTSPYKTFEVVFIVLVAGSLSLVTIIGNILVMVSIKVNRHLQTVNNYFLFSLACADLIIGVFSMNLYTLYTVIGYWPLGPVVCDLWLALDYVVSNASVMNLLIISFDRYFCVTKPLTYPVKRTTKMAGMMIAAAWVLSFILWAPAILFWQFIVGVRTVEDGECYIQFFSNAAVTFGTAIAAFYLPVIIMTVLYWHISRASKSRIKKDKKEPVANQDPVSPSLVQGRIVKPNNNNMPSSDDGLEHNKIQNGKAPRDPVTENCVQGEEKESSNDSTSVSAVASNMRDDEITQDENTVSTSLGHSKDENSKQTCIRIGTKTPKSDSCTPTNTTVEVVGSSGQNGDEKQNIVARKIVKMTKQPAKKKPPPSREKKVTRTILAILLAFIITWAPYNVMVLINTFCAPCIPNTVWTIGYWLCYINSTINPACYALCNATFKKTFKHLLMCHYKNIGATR

[8] = DRUGMATRIX: Leukotriene, BLT (LTB4) radioligand binding (ligand: [3H]LTB4); format: cell membranes, Membrane; conditions: u-937; Not Active = under 50% inhibition at 10 µM
[9] = biological target: Beta-2 adrenergic receptor (Homo sapiens, UniProt P07550); test: DRUGMATRIX: Adrenergic beta2 radioligand binding (ligand: [3H] CGP-12177); format: cell membranes, Membrane; conditions: cho; Not Active = under 50% inhibition at 10 µM
Beta-2 adrenergic receptor, sequence (P07550 whole entry): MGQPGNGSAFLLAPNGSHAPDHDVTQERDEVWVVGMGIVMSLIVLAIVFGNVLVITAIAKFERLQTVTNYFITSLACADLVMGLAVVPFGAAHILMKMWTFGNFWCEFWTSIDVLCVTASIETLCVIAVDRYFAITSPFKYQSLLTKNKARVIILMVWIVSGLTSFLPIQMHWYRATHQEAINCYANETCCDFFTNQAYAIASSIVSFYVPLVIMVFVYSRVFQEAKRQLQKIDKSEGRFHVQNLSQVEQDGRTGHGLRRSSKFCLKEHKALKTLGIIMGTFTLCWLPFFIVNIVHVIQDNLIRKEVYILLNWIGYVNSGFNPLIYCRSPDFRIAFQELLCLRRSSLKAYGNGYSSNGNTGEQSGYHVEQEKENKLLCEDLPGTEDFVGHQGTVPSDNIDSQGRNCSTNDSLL

[10] = biological target: C-C chemokine receptor type 2 (Homo sapiens, UniProt P41597); format: cell membranes, CHO-K1, Membrane; conditions: cho-k1; also: in other assays of this panel Not Active means under 50% inhibition at 10 µM
C-C chemokine receptor type 2, sequence (P41597 whole entry): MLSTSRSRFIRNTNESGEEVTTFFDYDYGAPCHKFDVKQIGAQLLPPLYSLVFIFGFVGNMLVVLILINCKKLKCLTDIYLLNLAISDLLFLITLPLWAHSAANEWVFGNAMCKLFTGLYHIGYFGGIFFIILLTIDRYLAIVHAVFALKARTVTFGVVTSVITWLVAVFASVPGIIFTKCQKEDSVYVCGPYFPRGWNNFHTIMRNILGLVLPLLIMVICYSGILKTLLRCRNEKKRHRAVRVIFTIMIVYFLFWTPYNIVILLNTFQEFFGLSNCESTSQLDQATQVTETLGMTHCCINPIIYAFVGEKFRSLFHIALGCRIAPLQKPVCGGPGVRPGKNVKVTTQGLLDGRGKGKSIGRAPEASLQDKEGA

[11] = DRUGMATRIX: GABAA, Muscimol, Central radioligand binding (ligand: [3H] Muscimol); format: cell membranes, Rattus norvegicus, Wistar, Brain, Membrane; conditions: Not Active = under 50% inhibition at 10 µM
[12] = biological target: Kappa-type opioid receptor (Homo sapiens, UniProt P41145); test: DRUGMATRIX: Opiate kappa (OP2, KOP) radioligand binding (ligand: [3H] Diprenorphine); format: cell membranes, HEK293, Membrane; conditions: hek293; Not Active = under 50% inhibition at 10 µM
Kappa-type opioid receptor, sequence (P41145 whole entry): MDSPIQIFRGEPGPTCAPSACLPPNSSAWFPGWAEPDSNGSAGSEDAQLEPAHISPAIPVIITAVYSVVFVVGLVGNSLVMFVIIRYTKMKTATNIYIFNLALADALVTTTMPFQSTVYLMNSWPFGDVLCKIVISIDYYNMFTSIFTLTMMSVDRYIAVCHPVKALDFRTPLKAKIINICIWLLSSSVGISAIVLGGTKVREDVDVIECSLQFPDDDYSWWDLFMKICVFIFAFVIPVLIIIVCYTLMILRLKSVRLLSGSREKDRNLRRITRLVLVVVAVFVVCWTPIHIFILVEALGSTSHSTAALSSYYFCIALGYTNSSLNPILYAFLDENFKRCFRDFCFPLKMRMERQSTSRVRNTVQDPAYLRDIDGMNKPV

B2 bradykinin receptor = biological target: T4, B2 bradykinin receptor (Homo sapiens, UniProt P30411); format: cell membranes, Membrane; conditions: chem-1; also: in other assays of this panel Not Active means under 50% inhibition at 10 µM
T4 sequence (P30411 whole entry): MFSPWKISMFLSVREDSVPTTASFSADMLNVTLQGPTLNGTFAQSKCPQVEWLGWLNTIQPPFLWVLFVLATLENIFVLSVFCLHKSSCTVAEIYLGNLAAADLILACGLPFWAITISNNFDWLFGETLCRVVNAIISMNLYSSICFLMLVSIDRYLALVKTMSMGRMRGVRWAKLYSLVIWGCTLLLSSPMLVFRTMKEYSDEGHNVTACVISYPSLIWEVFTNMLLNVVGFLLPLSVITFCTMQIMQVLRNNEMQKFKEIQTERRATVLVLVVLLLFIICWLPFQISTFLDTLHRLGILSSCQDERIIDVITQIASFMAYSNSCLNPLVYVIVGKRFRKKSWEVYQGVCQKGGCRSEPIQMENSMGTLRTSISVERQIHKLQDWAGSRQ

[13] = biological target: Beta-1 adrenergic receptor (Homo sapiens, UniProt P08588); test: DRUGMATRIX: Adrenergic beta1 radioligand binding (ligand: [125I] Cyanopindolol); format: cell membranes, CHO-K1, Membrane; conditions: cho-k1; Not Active = under 50% inhibition at 10 µM
Beta-1 adrenergic receptor, sequence (P08588 whole entry): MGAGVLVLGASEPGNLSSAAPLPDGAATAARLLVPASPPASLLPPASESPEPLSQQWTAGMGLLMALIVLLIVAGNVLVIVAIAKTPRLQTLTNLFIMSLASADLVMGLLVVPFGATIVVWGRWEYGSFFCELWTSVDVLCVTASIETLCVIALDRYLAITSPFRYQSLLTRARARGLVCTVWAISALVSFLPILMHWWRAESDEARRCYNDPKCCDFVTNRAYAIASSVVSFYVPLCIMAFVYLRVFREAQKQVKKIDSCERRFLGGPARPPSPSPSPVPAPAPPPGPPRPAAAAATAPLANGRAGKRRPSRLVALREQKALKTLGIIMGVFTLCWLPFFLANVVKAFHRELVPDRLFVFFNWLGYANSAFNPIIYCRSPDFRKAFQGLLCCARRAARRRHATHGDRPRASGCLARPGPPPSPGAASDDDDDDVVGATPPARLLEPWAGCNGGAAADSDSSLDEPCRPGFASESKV

[14] = DRUGMATRIX: Phorbol Ester radioligand binding (ligand: [3H] PDBu); format: cell membranes, Mus musculus, ICR, Brain, Membrane; conditions: Not Active = under 50% inhibition at 10 µM

CN[C@H](CC(C)C)C(=O)N[C@H]1C(=O)N[C@@H](CC(N)=O)C(=O)N[C@H]2C(=O)N[C@H]3C(=O)N[C@H](C(=O)N[C@H](C(=O)O)c4cc(O)cc(O)c4-c4cc3ccc4O)[C@H](O)c3ccc(c(Cl)c3)Oc3cc2cc(c3O[C@@H]2O[C@H](CO)[C@@H](O)[C@H](O)[C@H]2O[C@H]2C[C@](C)(N)[C@H](O)[C@H](C)O2)Oc2ccc(cc2Cl)[C@H]1O [VANCOMYCIN]
Not Active: IC50 [1] | Ki [1] | IC50 (Calcitonin receptor) | IC50 [2] | IC50 [3] | Ki [3] | IC50 [4] | IC50 [5] | Ki [5] | IC50 [6] | Ki [6] | IC50 [7] | IC50 [8] | Ki [8] | IC50 [9] | IC50 [10] | IC50 [11] | Ki [11] | IC50 [12] | IC50 (B2 bradykinin receptor) | IC50 [13] | IC50 [14] | Ki [14]

COC(=O)[C@@H]1[C@H]2C[C@H]3c4[nH]c5ccccc5c4CCN3C[C@@H]2CC[C@@H]1O [YOHIMBINE]
Not Active: IC50 [1] | Ki [1] | IC50 (Calcitonin receptor) | IC50 [2] | IC50 [3] | Ki [3] | IC50 [4] | IC50 [5] | Ki [5] | IC50 [6] | Ki [6] | IC50 [7] | IC50 [8] | Ki [8] | IC50 [9] | IC50 [10] | IC50 [11] | Ki [11] | IC50 [12] | IC50 (B2 bradykinin receptor) | IC50 [13] | IC50 [14] | Ki [14]
